pIC50: −log10 of the molar value.
Key:
[1] = tested on: RAW264.7; test: Cytotoxicity against mouse RAW264.7 cells assessed as cell viability at 20 uM incubated for 24 hrs by CCK8 assay; format: toxicity, cell-based; conditions: raw264.7, 24 h
[2] = tested on: RAW264.7; test: Anti-inflammatory activity in mouse RAW264.7 cells assessed as inhibition of LPS-induced NO production at 10 uM incubated for 24 hrs relative to control; format: functional
[3] = tested on: RAW264.7; test: Anti-inflammatory activity in mouse RAW264.7 cells assessed as inhibition of LPS-induced NO production incubated for 24 hrs; format: functional, cell-based; conditions: for pIC50: RAW264.7, 24 h; for inhibition: dose 1.25-20 µM

## C[C@H](CCC(=O)N1CCN(C(=O)/C=C/c2cccc(O)c2)CC1)[C@H]1CC[C@H]2[C@@H]3[C@@H](O)C[C@@H]4C[C@H](O)CC[C@]4(C)[C@H]3CC[C@]12C
[1]
  Activity: Non-Toxic

## C[C@H](CCC(=O)N1CCN(C(=O)CCc2ccccc2)CC1)[C@H]1CC[C@H]2[C@@H]3[C@@H](O)C[C@@H]4C[C@H](O)CC[C@]4(C)[C@H]3CC[C@]12C
[1]
  Activity: Non-Toxic

## C[C@H](CCC(=O)N1CCN(C(=O)/C=C/c2ccccc2Cl)CC1)[C@H]1CC[C@H]2[C@@H]3[C@@H](O)C[C@@H]4C[C@H](O)CC[C@]4(C)[C@H]3CC[C@]12C
[1]
  Activity: Non-Toxic

## C[C@H](CCC(=O)N1CCN(C(=O)/C=C/c2cccc3ccccc23)CC1)[C@H]1CC[C@H]2[C@@H]3[C@@H](O)C[C@@H]4C[C@H](O)CC[C@]4(C)[C@H]3CC[C@]12C
[1]
  Activity: Non-Toxic

## C[C@H](CCC(=O)N1CCN(C(=O)/C=C/c2cc(F)cc(F)c2)CC1)[C@H]1CC[C@H]2[C@@H]3[C@@H](O)C[C@@H]4C[C@H](O)CC[C@]4(C)[C@H]3CC[C@]12C
[1]
  Activity: Non-Toxic

## COc1cc(/C=C\C(=O)N2CCN(C(=O)CC[C@@H](C)[C@H]3CC[C@H]4[C@@H]5[C@@H](O)C[C@@H]6C[C@H](O)CC[C@]6(C)[C@H]5CC[C@]34C)CC2)cc(OC)c1OC
[1]
  Activity: Non-Toxic

## COc1ccc(/C=C/C(=O)N2CCN(C(=O)CC[C@@H](C)[C@H]3CC[C@H]4[C@@H]5[C@@H](O)C[C@@H]6C[C@H](O)CC[C@]6(C)[C@H]5CC[C@]34C)CC2)cc1
[1]
  Activity: Non-Toxic

## C[C@H](CCC(=O)N1CCN(C(=O)/C=C/c2ccc3c(c2)OCO3)CC1)[C@H]1CC[C@H]2[C@@H]3[C@@H](O)C[C@@H]4C[C@H](O)CC[C@]4(C)[C@H]3CC[C@]12C
[1]
  Activity: Non-Toxic

## C[C@H](CCC(=O)N1CCN(C(=O)/C=C/c2cccc(Cl)c2)CC1)[C@H]1CC[C@H]2[C@@H]3[C@@H](O)C[C@@H]4C[C@H](O)CC[C@]4(C)[C@H]3CC[C@]12C
[1]
  Activity: Non-Toxic

## C[C@H](CCC(=O)N1CCN(C(=O)/C=C/c2ccc(F)cc2F)CC1)[C@H]1CC[C@H]2[C@@H]3[C@@H](O)C[C@@H]4C[C@H](O)CC[C@]4(C)[C@H]3CC[C@]12C
[1]
  Activity: Toxic

## C[C@H](CCC(=O)N1CCN(C(=O)/C=C/c2ccccc2)CC1)[C@H]1CC[C@H]2[C@@H]3[C@@H](O)C[C@@H]4C[C@H](O)CC[C@]4(C)[C@H]3CC[C@]12C
[1]
  Activity: Non-Toxic
[2]
  inhibition at 10 µM: > 50%
[3]
  pIC50: 5.02
  inhibition: Dose-Dependent Effect

## C[C@H](CCC(=O)N1CCN(C(=O)/C=C/c2cccc(OC(F)(F)F)c2)CC1)[C@H]1CC[C@H]2[C@@H]3[C@@H](O)C[C@@H]4C[C@H](O)CC[C@]4(C)[C@H]3CC[C@]12C
[1]
  Activity: Non-Toxic
[2]
  inhibition at 10 µM: > 50%
[3]
  pIC50: 5.07
  inhibition: Dose-Dependent Effect

## C/C(=C\c1ccccc1)C(=O)N1CCN(C(=O)CC[C@@H](C)[C@H]2CC[C@H]3[C@@H]4[C@@H](O)C[C@@H]5C[C@H](O)CC[C@]5(C)[C@H]4CC[C@]23C)CC1
[1]
  Activity: Non-Toxic

## C[C@H](CCC(=O)N1CCN(C(=O)/C=C/c2ccc(Cl)c(Cl)c2)CC1)[C@H]1CC[C@H]2[C@@H]3[C@@H](O)C[C@@H]4C[C@H](O)CC[C@]4(C)[C@H]3CC[C@]12C
[1]
  Activity: Non-Toxic

## C[C@H](CCC(=O)N1CCN(C(=O)/C=C/c2ccc(OC(F)(F)F)cc2)CC1)[C@H]1CC[C@H]2[C@@H]3[C@@H](O)C[C@@H]4C[C@H](O)CC[C@]4(C)[C@H]3CC[C@]12C
[1]
  Activity: Toxic

## Cc1ccc(/C=C/C(=O)N2CCN(C(=O)CC[C@@H](C)[C@H]3CC[C@H]4[C@@H]5C(=O)C[C@@H]6CC(=O)CC[C@]6(C)[C@H]5CC[C@]34C)CC2)cc1
[1]
  Activity: Toxic

## C[C@H](CCC(=O)N1CCN(C(=O)/C=C/c2ccc(C(F)(F)F)cc2)CC1)[C@H]1CC[C@H]2[C@@H]3[C@@H](O)C[C@@H]4C[C@H](O)CC[C@]4(C)[C@H]3CC[C@]12C
[1]
  Activity: Non-Toxic

## COc1cc(/C=C/C(=O)N2CCN(C(=O)CC[C@@H](C)[C@H]3CC[C@H]4[C@@H]5[C@@H](O)C[C@@H]6C[C@H](O)CC[C@]6(C)[C@H]5CC[C@]34C)CC2)cc(OC)c1O
[1]
  Activity: Toxic

## C[C@H](CCC(=O)N1CCN(C(=O)/C=C/c2cc(F)c(F)c(F)c2)CC1)[C@H]1CC[C@H]2[C@@H]3[C@@H](O)C[C@@H]4C[C@H](O)CC[C@]4(C)[C@H]3CC[C@]12C
[1]
  Activity: Toxic

## C[C@H](CCC(=O)N1CCN(C(=O)/C=C/c2ccccc2O)CC1)[C@H]1CC[C@H]2[C@@H]3[C@@H](O)C[C@@H]4C[C@H](O)CC[C@]4(C)[C@H]3CC[C@]12C
[1]
  Activity: Non-Toxic

## COc1cc(/C=C/C(=O)N2CCN(C(=O)CC[C@@H](C)[C@H]3CC[C@H]4[C@@H]5[C@@H](O)C[C@@H]6C[C@H](O)CC[C@]6(C)[C@H]5CC[C@]34C)CC2)cc(OC)c1OC
[1]
  Activity: Non-Toxic
[2]
  inhibition at 10 µM: > 50%
[3]
  pIC50: 5.02
  inhibition: Dose-Dependent Effect

## C[C@H](CCC(=O)N1CCN(C(=O)/C=C/c2ccc(F)c(F)c2)CC1)[C@H]1CC[C@H]2[C@@H]3[C@@H](O)C[C@@H]4C[C@H](O)CC[C@]4(C)[C@H]3CC[C@]12C
[1]
  Activity: Non-Toxic

## C[C@H](CCC(=O)N1CCN(C(=O)/C=C\c2ccc3c(c2)OCO3)CC1)[C@H]1CC[C@H]2[C@@H]3[C@@H](O)C[C@@H]4C[C@H](O)CC[C@]4(C)[C@H]3CC[C@]12C
[1]
  Activity: Non-Toxic

## C[C@H](CCC(=O)N1CCN(C(=O)/C=C/c2ccc(O)cc2)CC1)[C@H]1CC[C@H]2[C@@H]3[C@@H](O)C[C@@H]4C[C@H](O)CC[C@]4(C)[C@H]3CC[C@]12C
[1]
  Activity: Non-Toxic

## C[C@H](CCC(=O)N1CCN(C(=O)/C=C/c2ccc(Cl)cc2)CC1)[C@H]1CC[C@H]2[C@@H]3[C@@H](O)C[C@@H]4C[C@H](O)CC[C@]4(C)[C@H]3CC[C@]12C
[1]
  Activity: Non-Toxic
[2]
  inhibition at 10 µM: > 50%
[3]
  pIC50: 5.08
  inhibition: Dose-Dependent Effect

## COc1cc(/C=C/C(=O)N2CCN(C(=O)CC[C@@H](C)[C@H]3CC[C@H]4[C@@H]5[C@@H](O)C[C@@H]6C[C@H](O)CC[C@]6(C)[C@H]5CC[C@]34C)CC2)ccc1O
[1]
  Activity: Non-Toxic

## COc1cc(/C=C\C(=O)N2CCN(C(=O)CC[C@@H](C)[C@H]3CC[C@H]4[C@@H]5[C@@H](O)C[C@@H]6C[C@H](O)CC[C@]6(C)[C@H]5CC[C@]34C)CC2)ccc1O
[1]
  Activity: Non-Toxic

## CC(=O)O[C@@H]1CC[C@@]2(C)[C@@H](C1)C[C@H](OC(C)=O)[C@@H]1[C@@H]2CC[C@]2(C)[C@@H]([C@H](C)CCC(=O)N3CCN(C(=O)/C=C/c4ccc(C)cc4)CC3)CC[C@@H]12
[1]
  Activity: Non-Toxic

Reference: ChEMBL document CHEMBL5625254, “Design, synthesis and evaluation of ursodeoxycholic acid-cinnamic acid hybrids as potential anti-inflammatory agents by inhibiting Akt/NF-κB and MAPK signaling pathways” (Eur J Med Chem, 2023)
